Data published in patent US20200407717A1, “METHODS OF MODULATING ANTISENSE ACTIVITY” (Ionis Pharmaceuticals, Inc., priority 2018, published 2020).
e = 2'-O-(2-methoxyethyl) (MOE); d = 2'-deoxy (DNA)

Experiments:
EGF-EGFR signaling = experiment: EGFR signaling western blot (p-EGFR, p-ERK), A431 cells; format: cell-based; conditions: 2 μM for 16 hours
Description: In order to test the effects of a PS-ASO on EGFR signaling, A431 cells were incubated with compound no. 116847 or no PS-ASO compound for 16 hours. All cells were then treated with EGF prior to being subjected to the pulse-chase protocol described above. Cell lysates were run on a SDS-PAGE gel and analyzed by sequential western blot for phosphorylated EGFR (P-EGFR), total EGFR (T-EGFR), phosphorylated ERK (P-ERK), and total ERK (T-ERK) using the antibodies described above for EGFR, 4370 for P-ERK (Cell Signaling Technology), and 4695 for T-ERK (Cell Signaling Technology).
110080, 25690, 25699, 395251, or 395254 at 2 μM for 16 hours prior to carrying out the pulse-chase experiment described above.

Malat1 RNA = experiment: Antisense activity by RT-qPCR, Malat1, A431 cells; format: cell-based
Description: A431 cells were grown at 10,000 cells per well and pre-treated with a variety of growth factors to determine if the addition of exogenous growth factors affects antisense activity or uptake of modified antisense oligonucleotides in a cell. The growth factors used were EGF, insulin growth factor (IGF), transforming growth factor (TGF), […] (VEGF), hepatocyte growth factor (HGF), platelet growth factor (PGF) and fibroblasts growth factor (FGF). To test antisense activity, cells were treated for 4 hours with a growth factor or vehicle alone, and then treated with compound no. 25690 (complementary to Drosha), compound no. 395254 (complementary to Malat1), or vehicle alone. RNA was isolated from the cells and Drosha or Malat1 RNA levels were measured by RT-qPCR. Human primer probe set 13816 (forward sequence […], designated herein as SEQ ID NO: 3; reverse sequence […], designated herein as SEQ ID NO: 4; probe sequence […], designated herein as SEQ ID NO: 5) was used to measure Drosha mRNA levels and primer probe set RTS2736 (forward sequence […], designated herein as SEQ ID NO: 6; reverse sequence […], designated herein as SEQ ID NO: 7; probe sequence TGCCACATCGCCACCCCGT, designated herein as SEQ ID NO: 8) was used to measure Malat1 RNA levels. Drosha and Malat1 RNA levels were normalized to total RNA content, as measured by RIBOGREEN®. Results are presented in the tables below as normalized RNA levels, relative to untreated control cells.
A431 cells were treated with EGF or TGF at 200 ng/mL in the presence or absence of 1 μM of the EGFR tyrosine kinase inhibitor PD174265. The cells were then treated with compound no. 25690 or compound no. 395254 as in Example 8. Total RNA was isolated and analyzed by RT-qPCR, as in Example 8.
Following siRNA treatment, cells were treated with compound no. 25690 or compound no. 395254 in the presence or absence of EGF. 16 hours after treatment with a PS-ASO with or without EGF, cells were harvested, and RNA levels were analyzed via RT-qPCR as in Example 8.

AGGAAGGAAGCTGGCGATCT (sugars from the 5' end e5 d10 e5, all phosphorothioate, methylation of C not given here) [compound 25690]
EGFR signaling (EGF-EGFR signaling): not be impacted
Malat1 RNA (% Control) (Malat1 RNA; 2.0 nM, Control, Table 19): 100.0 % Control
Malat1 RNA (% Control) (Malat1 RNA; 2.0 nM, EGF+PD174265): 100.0 % Control
Malat1 RNA (% Control) (Malat1 RNA; 2.0 nM, EGF, Table 19): 100.0 % Control
Malat1 RNA (% Control) (Malat1 RNA; 3.9 nM, Control, Table 19): 99.2 % Control
Malat1 RNA (% Control) (Malat1 RNA; 3.9 nM, EGF+PD174265): 110.0 % Control
Malat1 RNA (% Control) (Malat1 RNA; 3.9 nM, EGF, Table 19): 105.0 % Control
Malat1 RNA (% Control) (Malat1 RNA; 7.8 nM, Control, Table 19): 98.2 % Control
Malat1 RNA (% Control) (Malat1 RNA; 7.8 nM, EGF+PD174265): 97.2 % Control
Malat1 RNA (% Control) (Malat1 RNA; 7.8 nM, EGF, Table 19): 78.2 % Control
Malat1 RNA (% Control) (Malat1 RNA; 15.6 nM, Control, Table 19): 72.3 % Control
Malat1 RNA (% Control) (Malat1 RNA; 15.6 nM, EGF+PD174265): 61.2 % Control
Malat1 RNA (% Control) (Malat1 RNA; 15.6 nM, EGF, Table 19): 60.1 % Control
Malat1 RNA (% Control) (Malat1 RNA; 31.3 nM, Control, Table 19): 64.4 % Control
Malat1 RNA (% Control) (Malat1 RNA; 31.3 nM, EGF+PD174265): 59.8 % Control
Malat1 RNA (% Control) (Malat1 RNA; 31.3 nM, EGF, Table 19): 40.5 % Control
Malat1 RNA (% Control) (Malat1 RNA; 62.5 nM, Control, Table 19): 59.6 % Control
Malat1 RNA (% Control) (Malat1 RNA; 62.5 nM, EGF+PD174265): 50.2 % Control
Malat1 RNA (% Control) (Malat1 RNA; 62.5 nM, EGF, Table 19): 43.9 % Control
Malat1 RNA (% Control) (Malat1 RNA; 125 nM, Control, Table 19): 46.2 % Control
Malat1 RNA (% Control) (Malat1 RNA; 125 nM, EGF+PD174265): 39.6 % Control
Malat1 RNA (% Control) (Malat1 RNA; 125 nM, EGF, Table 19): 25.9 % Control
Malat1 RNA (% Control) (Malat1 RNA; 250 nM, Control, Table 19): 36.1 % Control
Malat1 RNA (% Control) (Malat1 RNA; 250 nM, EGF+PD174265): 45.6 % Control
Malat1 RNA (% Control) (Malat1 RNA; 250 nM, EGF, Table 19): 18.9 % Control
Malat1 RNA (% Control) (Malat1 RNA; 500 nM, Control, Table 19): 35.5 % Control
Malat1 RNA (% Control) (Malat1 RNA; 500 nM, EGF+PD174265): 42.5 % Control
Malat1 RNA (% Control) (Malat1 RNA; 500 nM, EGF, Table 19): 14.5 % Control
Malat1 RNA (% Control) (Malat1 RNA; 1000 nM, Control, Table 19): 22.3 % Control
Malat1 RNA (% Control) (Malat1 RNA; 1000 nM, EGF+PD174265): 22.3 % Control
Malat1 RNA (% Control) (Malat1 RNA; 1000 nM, EGF, Table 19): 15.2 % Control
Malat1 RNA (% Control) (Malat1 RNA; 2000 nM, Control, Table 19): 19.2 % Control
Malat1 RNA (% Control) (Malat1 RNA; 2000 nM, EGF+PD174265): 15.3 % Control
Malat1 RNA (% Control) (Malat1 RNA; 2000 nM, EGF, Table 19): 12.4 % Control
Malat1 RNA (% Control) (Malat1 RNA; 4000 nM, Control, Table 19): 17.2 % Control
Malat1 RNA (% Control) (Malat1 RNA; 4000 nM, EGF+PD174265): 13.2 % Control
Malat1 RNA (% Control) (Malat1 RNA; 4000 nM, EGF, Table 19): 10.2 % Control
IC50 (Malat1 RNA; Control, Table 19): 43 ± 5.7 nM
IC50 (Malat1 RNA; EGF 200 ng/mL + 1 μM PD174265, Table 19): 47 ± 5.3 nM
IC50 (Malat1 RNA; EGF 200 ng/mL, Table 19): 19 ± 3 nM
